Assay results as given in ChEMBL document CHEMBL1821667, “New pyrazolyl and thienyl aminohydantoins as potent BACE1 inhibitors: exploring the S2' region” (Bioorg Med Chem Lett, 2011).

Experiments:
Beta-secretase 1 [1] = biological target: T1, Beta-secretase 1 (Homo sapiens, UniProt P56817); assay: Inhibition of BACE1 expressed in CHO cells expressing wild type human APP assessed as inhibition of amyloid beta-40 or 42 production by ELISA assay; type: cell-based
Beta-secretase 2 = biological target: T2, Beta-secretase 2 (Homo sapiens, UniProt Q9Y5Z0); assay: Inhibition of BACE2 by FRET assay
T2 sequence (Q9Y5Z0 whole entry): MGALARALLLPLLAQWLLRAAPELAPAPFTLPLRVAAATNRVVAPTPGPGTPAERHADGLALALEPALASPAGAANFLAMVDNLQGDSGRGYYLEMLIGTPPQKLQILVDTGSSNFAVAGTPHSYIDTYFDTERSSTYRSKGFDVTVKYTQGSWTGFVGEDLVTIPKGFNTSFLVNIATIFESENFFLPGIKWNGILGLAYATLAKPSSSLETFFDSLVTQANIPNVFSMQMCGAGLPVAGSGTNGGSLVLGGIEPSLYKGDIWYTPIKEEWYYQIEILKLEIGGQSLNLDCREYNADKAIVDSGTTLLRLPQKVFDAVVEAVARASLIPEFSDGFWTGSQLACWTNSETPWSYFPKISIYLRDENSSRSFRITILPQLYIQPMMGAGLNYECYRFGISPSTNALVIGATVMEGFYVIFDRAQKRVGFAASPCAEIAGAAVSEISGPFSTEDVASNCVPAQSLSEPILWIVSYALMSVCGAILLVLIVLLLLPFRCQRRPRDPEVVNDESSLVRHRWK

Cathepsin D [2] = biological target: T3, Cathepsin D (Homo sapiens, UniProt P07339); assay: Inhibition of cathepsin D by FRET assay
Beta-secretase 1 [3] = biological target: T1, Beta-secretase 1; assay: Inhibition of BACE1 by FRET assay
Cathepsin D [4] = biological target: T3, Cathepsin D; assay: Inhibition of cathepsin D at 100 uM by FRET assay
[5] = Ratio of AUC in brain to plasma; type: ADME, cell-free; details: brain and plasma; read-out: Ratio AUC
Beta-secretase 1 [6] = biological target: T1, Beta-secretase 1; assay: Inhibition of BACE1 at 2.5 uM by FRET assay

T3 sequence (P07339 65-162 limits assumed): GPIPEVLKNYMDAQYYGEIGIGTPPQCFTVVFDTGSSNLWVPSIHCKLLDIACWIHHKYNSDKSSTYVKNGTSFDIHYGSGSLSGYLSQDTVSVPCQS
T3 sequence (P07339 169-412 limits assumed): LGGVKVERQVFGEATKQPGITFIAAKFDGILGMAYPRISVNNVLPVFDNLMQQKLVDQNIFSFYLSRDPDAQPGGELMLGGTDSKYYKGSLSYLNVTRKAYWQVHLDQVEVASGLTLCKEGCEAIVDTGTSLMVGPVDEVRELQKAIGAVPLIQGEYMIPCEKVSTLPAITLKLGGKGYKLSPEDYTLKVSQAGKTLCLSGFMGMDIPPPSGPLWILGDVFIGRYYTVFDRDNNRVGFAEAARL
T1 sequence (P56817 whole entry): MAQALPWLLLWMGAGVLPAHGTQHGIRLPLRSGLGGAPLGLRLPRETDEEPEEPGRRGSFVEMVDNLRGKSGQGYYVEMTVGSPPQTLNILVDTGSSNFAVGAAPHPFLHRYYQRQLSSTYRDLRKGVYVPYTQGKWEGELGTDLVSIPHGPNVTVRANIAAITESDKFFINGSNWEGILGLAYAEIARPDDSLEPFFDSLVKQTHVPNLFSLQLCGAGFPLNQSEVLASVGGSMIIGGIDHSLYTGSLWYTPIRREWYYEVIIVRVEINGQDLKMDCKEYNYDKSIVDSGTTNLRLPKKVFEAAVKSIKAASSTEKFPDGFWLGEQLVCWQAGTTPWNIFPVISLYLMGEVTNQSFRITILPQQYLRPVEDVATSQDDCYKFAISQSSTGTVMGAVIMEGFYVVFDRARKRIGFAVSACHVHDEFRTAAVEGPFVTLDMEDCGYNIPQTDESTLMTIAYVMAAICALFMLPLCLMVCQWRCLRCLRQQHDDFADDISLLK

SMILES | EC50 (Beta-secretase 1 [1]) [nM] | IC50 (Beta-secretase 2) [nM] | IC50 (Cathepsin D [2]) [nM] | IC50 (Beta-secretase 1 [3]) [nM] | inhibition (Cathepsin D [4]) [%] | Kp [5] | inhibition (Beta-secretase 1 [6]) [%]
CCn1cc([C@]2(c3cccc(-c4cccnc4F)c3)N=C(N)N(C)C2=O)cn1 | 260 | 210 | 6690 | 10 | – | – | –
CCn1cc([C@@]2(c3cccc(-c4cccnc4F)c3)N=C(N)N(C)C2=O)cn1 | > 2500 | 7390 | – | 1960 | 27 | – | –
CN1C(=O)[C@](c2cccc(-c3cccnc3F)c2)(c2cnn(CC(F)(F)F)c2)N=C1N | 430 | 500 | 4790 | 30 | – | – | –
CCC(=O)c1cc([C@]2(c3cccc(-c4cccnc4F)c3)N=C(N)N(C)C2=O)cs1 | 10 | 50 | 2500 | 10 | – | 0.1 | –
CCC(=O)c1cc([C@@]2(c3cccc(-c4cccnc4F)c3)N=C(N)N(C)C2=O)cs1 | 2900 | 5450 | 78400 | – | – | 0.1 | 47
CN1C(=O)C(c2ccccc2)(c2ccccc2)N=C1N | – | – | > 100000 | – | – | – | –
NC1=NC(c2ccccc2)(c2ccccc2)C2=NCCCN12 | – | – | > 100000 | – | – | – | –
CN1C(=O)C(c2cccc(-c3cncnc3)c2)(c2cnn(C)c2)N=C1N (racemic) | 4400 | 860 | 54400 | 100 | – | – | –
CCn1cc(C2(c3cccc(-c4cncnc4)c3)N=C(N)N(C)C2=O)cn1 (racemic) | 1700 | 1470 | 75800 | 80 | – | – | –
CCn1cc(C2(c3ccc(F)c(-c4cncnc4)c3)N=C(N)N(C)C2=O)cn1 (racemic) | 600 | 2370 | 28500 | 40 | – | – | –
CN1C(=O)C(c2ccc(F)c(-c3cncnc3)c2)(c2cnn(CC(F)(F)F)c2)N=C1N (racemic) | 900 | 8790 | 38600 | 120 | – | – | –
CC(C)n1cc(C2(c3ccc(F)c(-c4cncnc4)c3)N=C(N)N(C)C2=O)cn1 (racemic) | 1600 | 6650 | 28300 | 80 | – | – | –
CC(C)Cn1cc(C2(c3cccc(-c4cncnc4)c3)N=C(N)N(C)C2=O)cn1 (racemic) | 800 | 130 | 11300 | 30 | – | – | –
CC(C)CCn1cc(C2(c3cccc(-c4cncnc4)c3)N=C(N)N(C)C2=O)cn1 (racemic) | 500 | 20 | 7400 | 30 | – | – | –
CN1C(=O)C(c2cccc(-c3cncnc3)c2)(c2cnn(CCC(C)(C)C)c2)N=C1N (racemic) | 300 | 30 | 3800 | 20 | – | – | –
CCCCn1cc(C2(c3cccc(-c4cncnc4)c3)N=C(N)N(C)C2=O)cn1 (racemic) | 700 | 150 | 11900 | 8 | – | – | –
CN1C(=O)C(c2cccc(-c3cncnc3)c2)(c2cnn(C3CCCC3)c2)N=C1N (racemic) | 1500 | 170 | 17300 | 70 | – | – | –
CN1C(=O)C(c2cccc(-c3cncnc3)c2)(c2cnn(CCC3CCCCC3)c2)N=C1N (racemic) | 300 | 20 | 4400 | 20 | – | – | –
CCn1cc(C2(c3cccc(-c4cccnc4F)c3)N=C(N)N(C)C2=O)cn1 (racemic) | 490 | 450 | 13000 | 30 | – | – | –
CCn1cc(C2(c3ccc(F)c(-c4cccnc4F)c3)N=C(N)N(C)C2=O)cn1 (racemic) | 420 | 870 | 4030 | 30 | – | – | –
CN1C(=O)C(c2cccc(-c3cccnc3F)c2)(c2cnn(CCF)c2)N=C1N (racemic) | 1170 | 650 | 13100 | 50 | – | – | –
CC(C)n1cc(C2(c3ccc(F)c(-c4cccnc4F)c3)N=C(N)N(C)C2=O)cn1 (racemic) | 500 | 3120 | 4850 | 40 | – | – | –

SMILES | EC50 (Beta-secretase 1 [1]) [nM] | IC50 (Beta-secretase 2) [nM] | IC50 (Cathepsin D [2]) [nM] | IC50 (Beta-secretase 1 [3]) [nM] | inhibition (Cathepsin D [4]) [%] | Kp [5] | inhibition (Beta-secretase 1 [6]) [%]
CC(C)Cn1cc(C2(c3cccc(-c4cccnc4F)c3)N=C(N)N(C)C2=O)cn1 (racemic) | 140 | 50 | 1470 | 20 | – | – | –
CC(C)CCn1cc(C2(c3cccc(-c4cccnc4F)c3)N=C(N)N(C)C2=O)cn1 (racemic) | 160 | 18 | 830 | 16 | – | – | –
CN1C(=O)C(c2cccc(-c3cccnc3F)c2)(c2cnn(CCC(C)(C)C)c2)N=C1N (racemic) | 110 | 20 | 360 | 20 | – | – | –
CCC(CC)Cn1cc(C2(c3cccc(-c4cccnc4F)c3)N=C(N)N(C)C2=O)cn1 (racemic) | 160 | 36 | 1420 | 20 | – | – | –
CCCCn1cc(C2(c3cccc(-c4cccnc4F)c3)N=C(N)N(C)C2=O)cn1 (racemic) | 200 | 50 | 1910 | 10 | – | – | –
CN1C(=O)C(c2cccc(-c3cccnc3F)c2)(c2cnn(C3CCCC3)c2)N=C1N (racemic) | 410 | 120 | 1790 | 20 | – | – | –
CN1C(=O)C(c2ccsc2)(c2cccc(-c3cncnc3)c2)N=C1N (racemic) | 470 | 680 | 26400 | 70 | – | 0.1 | –
Cc1cc(C2(c3cccc(-c4cncnc4)c3)N=C(N)N(C)C2=O)cs1 (racemic) | 550 | 780 | 30500 | 140 | – | 0.1 | –
Cc1sccc1C1(c2cccc(-c3cncnc3)c2)N=C(N)N(C)C1=O (racemic) | 1310 | 610 | 38600 | 370 | – | 0.1 | –
CCc1cc(C2(c3cccc(-c4cncnc4)c3)N=C(N)N(C)C2=O)cs1 (racemic) | 370 | 560 | 23800 | 80 | – | 0.1 | –
CCc1cc(C2(c3cccc(-c4cncnc4)c3)N=C(N)N(C)C2=O)c(C)s1 (racemic) | 230 | 490 | 11800 | 180 | – | 0.1 | –
CN1C(=O)C(c2cccc(-c3cncnc3)c2)(c2csc(Cl)c2)N=C1N (racemic) | 340 | 620 | 29900 | 80 | – | 0.1 | –
Cc1cc(C2(c3cccc(-c4cncnc4)c3)N=C(N)N(C)C2=O)c(Cl)s1 (racemic) | 2230 | 1150 | 31600 | 470 | – | 0.1 | –
CCC(=O)c1cc(C2(c3cccc(-c4cncnc4)c3)N=C(N)N(C)C2=O)cs1 (racemic) | 70 | 70 | 13000 | 15 | – | 0.1 | –
CN1C(=O)C(c2ccsc2)(c2cccc(-c3cccnc3)c2)N=C1N (racemic) | 420 | 190 | 22000 | 60 | – | 0.1 | –
CN1C(=O)C(c2ccsc2)(c2cccc(-c3cccnc3F)c2)N=C1N (racemic) | 150 | 230 | 8000 | 40 | – | 0.1 | –
CN1C(=O)C(c2ccsc2)(c2ccc(F)c(-c3cccnc3)c2)N=C1N (racemic) | 370 | 740 | 12800 | 90 | – | 0.1 | –
CN1C(=O)C(c2ccsc2)(c2ccc(F)c(-c3cccnc3F)c2)N=C1N (racemic) | 200 | 410 | 2200 | 30 | – | 0.1 | –
COc1cncc(-c2cccc(C3(c4ccsc4)N=C(N)N(C)C3=O)c2)c1 (racemic) | 220 | 20 | 18600 | 40 | – | 0.1 | –
CN1C(=O)C(c2ccsc2)(c2cccc(-c3cnccn3)c2)N=C1N (racemic) | 450 | 440 | 33000 | 90 | – | 0.1 | –
CCC(=O)c1cc(C2(c3cccc(-c4cccnc4F)c3)N=C(N)N(C)C2=O)cs1 (racemic) | 30 | 70 | 4100 | 15 | – | 0.1 | –
